Key:
[1] = system: FoxM1; assay: Alternative splicing of FoxM1 in SMA Type 1 patient fibroblasts (RT-qPCR); format: cell-based; details: Homo sapiens, Fibroblast, 24 hours, read-out: EC50 for FoxM1 full-length (FL) mRNA
Procedure: FIG. 4: Alternative Splicing of FoxM1 In Vitro • SMA Type 1 patient fibroblasts were treated with RO7034067 for 24 hours, and FoxM1 full-length (FL) and exon 9-lacking (Δ9) mRNAs were analyzed by RT-qPCR. Data represent means±SEM of 6 repetitions and are expressed as fold change vs. untreated controls.
FoxM1, a gene alternatively spliced by other splicing modifier compounds, encodes a cell cycle regulator. […] Increased abundance of the FoxM1A isoform, together with decreased abundance of FoxM1 isoforms lacking exon 9, has the capability to disturb and inhibit cell cycle progression if splicing changes are at a level that is biologically significant. Thus, RO7034067 acts in a similar way on the SMN2 and FoxM1 splicing machinery, but with opposing outcomes with regard to protein function. MADD, a gene involved in apoptosis processes, has also been identified as a secondary splice target.

[2] = system: human iPSCs; assay: Cell cycle analysis of human iPSCs (flow cytometry); format: cell-based; details: for percentage of events in G1 phase, mean / percentage of events in G2 phase, mean / percentage of events in S phase, mean: 24 h
Procedure: For the analysis of the cell cycle, monkey stem cells were detached with Accutase (Stem Cell Technologies) and plated at 15000 cells/cm2 in 6 well plates coated with Matrigel (BD Biosciences) in MT medium supplemented with 10 ng/ml ActivinA, 15 ng/ml FGF2, and 10 μM Rock inhibitor. Cells were expanded for 1 day and then synchronized by starvation for 7 h in MT medium without supplements FGF2 and ActivinA. Before flow cytometry, cells were incubated for 24 h with fresh MT medium containing supplements FGF2 and ActivinA and test items at 80 nM, 400 nM, and 2000 nM or 30 nM rapamycin as positive control to arrest cells in G1 phase. Human stem cells were detached with Accutase (Stem Cell Technologies) and plated at 40000 cells/cm2 in 6 well plates coated with Matrigel (BD Biosciences) in mTeSR1 supplemented with 10 μM Rock Inhibitor Y-27632 (Sigma-Aldrich). Cells were expanded for 3 days with daily medium change. Since human iPSCs lose their properties during starvation by growth factor withdrawal, stem cells were synchronized with 200 ng/ml Nocodazole (Sigma-Aldrich) for 5 h and washed subsequently 2 times with mTesR1 Medium. Before flow cytometry, cells were incubated for 24 h with fresh TesR1 medium containing test items at 80 nM, 400 nM, and 2000 nM or 30 nM rapamycin as positive control to arrest cells in G1 phase.
For cell cycle analysis, human iPSCs were washed with PBS, detached with Accutase (Stem Cell Technologies) and collected by centrifugation. Cells were stained for 1 h at 37° C. with 600 ul of 7 AAD/Saponin/RNAse mix ([…] 7 AAD (#559925, BD), 50 μg/ml RNase, and 0.03% Saponin dissolved in FACS buffer (PBS, 5% FBS, 10 mM Hepes)). Cynomolgus monkey iPSCs were washed with PBS, detached with Accutase (Stem Cell Technologies) and collected by centrifugation. Cells were stained for 30 min at 37° C. in 300 ul standard MT medium (with FGF2 and ActivinA) containing 1 ul Vybrant Dye Cycle Violet Stain (#V35003, 1000× stock, Invitrogen) per ml medium. Additionally 2 ul 7 AAD (50 μg/ml 7 AAD) were added without permeabilization to label dead cells; cells were incubated for 10 min at 37° C. Flow cytometry analysis was performed using a Canto II cytometer (BD Biosciences) and data were analysed with the FlowJo software.

[3] = system: MADD gene transcripts; assay: 2-week dose-range finding toxicity study in rat: MADD splicing in spleen, duodenum, testis; format: in vivo; details: rats treated 2 weeks, highest dose of 7.5 mg/kg/day
Procedure: Gene expression analysis was performed in spleen, duodenum, and testis in rats treated for 2 weeks (MADD gene). […] The changes in splicing of MADD transcripts are consistent with the observations of apoptosis in the GI tract observed at the same dose since MADD gene products have been reported to interfere with the apoptosis processes.

Cc1cn2nc(-c3cc(=O)n4cc(N5CCNC6(CC6)C5)ccc4n3)cc(C)c2n1 [RO7034067, 7-(4,7-diazaspiro[2.5]octan-7-yl)-2-(2,8-dimethylimidazo[1,2-b]pyridazin-6-yl)pyrido[1,2-a]pyrimidin-4-one]
EC50 [1]: 67 ± 32 nM | percentage of events in G1 phase, mean ([2]; 80 nM): 44.6% | percentage of events in G2 phase, mean ([2]; 80 nM): 29.2% | percentage of events in S phase, mean ([2]; 80 nM): 26.2% | percentage of events in G1 phase, mean ([2]; 400 nM): 40.8% | percentage of events in G2 phase, mean ([2]; 400 nM): 31.4% | percentage of events in S phase, mean ([2]; 400 nM): 27.8% | percentage of events in G1 phase, mean ([2]; 2000 nM): 37.6% | percentage of events in G2 phase, mean ([2]; 2000 nM): 29.3% | percentage of events in S phase, mean ([2]; 2000 nM): 33.1% | effect on cell cycle ([2]; concentration-dependent): cell cycle arrest in S phase | gene expression analysis of MADD gene transcripts [3]: splicing response

From patent publication US12350273B2, “Treatment of SMA” (Hoffmann-La Roche Inc., priority 2017, dated 2025)
